This assay deals with T1, Interleukin-1 receptor-associated kinase 4 (Homo sapiens, UniProt Q9NWZ3).
T1 sequence (Q9NWZ3 whole entry): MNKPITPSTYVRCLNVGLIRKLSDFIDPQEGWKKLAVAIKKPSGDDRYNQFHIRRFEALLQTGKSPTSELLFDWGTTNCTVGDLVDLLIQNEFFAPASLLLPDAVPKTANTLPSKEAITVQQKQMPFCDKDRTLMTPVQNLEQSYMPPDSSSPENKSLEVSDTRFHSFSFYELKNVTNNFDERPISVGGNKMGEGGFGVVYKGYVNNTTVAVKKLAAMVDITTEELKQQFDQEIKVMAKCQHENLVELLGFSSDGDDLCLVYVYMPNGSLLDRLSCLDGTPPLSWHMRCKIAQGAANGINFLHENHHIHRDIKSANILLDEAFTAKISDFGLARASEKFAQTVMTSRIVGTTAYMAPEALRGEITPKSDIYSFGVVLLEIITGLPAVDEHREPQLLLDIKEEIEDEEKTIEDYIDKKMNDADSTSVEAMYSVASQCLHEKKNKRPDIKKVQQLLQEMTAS
Briefly: IRAK4 Inhibition Assay. On the procedure:
The assays were performed in U-bottom 384-well plates. The final assay volume was 30 μL prepared from 15 μL additions of enzyme and substrates (fluoresceinated peptide and ATP) and test compounds in assay buffer (20 mM HEPES pH 7.2, 10 mM MgCl2, 0.015% Brij 35 and 4 mM DTT). The reaction was initiated by the combination of IRAK4 with substrates and test compounds. The reaction mixture was incubated at room temperature for 60 min. and terminated by adding 45 μL of 35 mM EDTA to each sample. The reaction mixture was analyzed on the Caliper LABCHIP 3000 (Caliper, Hopkinton, MA) by electrophoretic separation of the fluorescent substrate and phosphorylated product. Inhibition data were calculated by comparison to no enzyme control reactions for 100% inhibition and vehicle-only reactions for 0% inhibition. The final concentrations of reagents in the assays are ATP, 500 μM; FL-IPTSPITTTYFFFKKK peptide 1.5 μM; IRAK4, 0.6 nM; and DMSO, 1.6%.

Molecules are shown by their SMILES.

As a reminder, the IC50 is the concentration that gives 50% inhibition. As for `CC(C)Nc1c(C(=O)NC[C@@H](F)C(C)(C)O)cnc2c1Oc1cc(C#N)ccc1O2` [US12391702, Example 1], the half-inhibitory concentration (IC50) was determined as 1180 nM.
